These results are taken from patent US20050089473A1, “Potassium channel mediated delivery of agents through the blood-brain barrier” (Cedars-Sinai Medical Center, priority 2003, published 2005).

For test [1], the system named is intracranial human glial tumors. The test is described as follows: Survival study, nude mice with intracranial human glial tumors. It is filed as in vivo, mouse. As to conditions: i.v., three consecutive doses for three days. On the procedure: GBM-xenograft rat and mouse models were developed by intracranially implanting primary GBM cells isolated from patient brain tumor tissue. […] To investigate whether MS administration by intracarotid (i.c.) and intravenous (i.v.) routes, increases BTB permeability to different tracers, and enhances delivery to brain tumor, permeability studies were performed.
Nude mice were intracranially implanted with cells. The tumor was allowed to grow for 7 days before treatment was initiated.

The subject of test [2] is metastatic lung brain tumors. The test can be described thus: [14C]AIB uptake in metastatic lung brain tumor model. It counts as in vivo. The following applies: intravenous co-injection.
The test system of the next test is GBM and RG2 brain tumors. The test is described as follows: GFP-adenoviral and erbB-2 antibody delivery across the BTB. It counts as in vivo, rat. How it is done:
GFP-Adv constructs were prepared as described by Smith et al. (Smith, G. M., Berry, R. L., Yang, J., and Tanelian, D. Electrophysiological analysis of dorsal root ganglion neurons pre- and post-coexpression of green fluorescent protein and functional 5-HHT3 recepter. J. Neurophysiol. 77:3115-3121, 1997) with slight modifications. GFP gene was first cloned into a shuttle vector, pAdTrack-CMV, and the resultant plasmid was linearized by digesting it with restriction endonuclease Pipe I, and subsequently co-transformed into E. Coli cells with an adenoviral backbone plasmid, pAdEasy-1. Recombinant plasmids were transfected into 293 cells. The presence of recombinant adenoviruses was verified by RT-PCR. GFP-Adv (1×10^9 pfu/ml) was infused intracarotidly (i.c.) with or without MS in rats with implanted GBM. Neu rabbits polyclonal and Her-2 MAb, which are specific for rat and human erbB-2 receptors, respectively, were used. […] Her-2 MAbs bound to Her-2 receptors, in vivo was detected by incubating rat brain cryosections as per the manufacturer's (Molecular Probes, OR) procedure with Alexa Flour-647 conjugated secondary antibody (Zecon labeling kit) that specifically binds to the IgG1 fragment of Her-2 MAb. Neu antibody binding to erbB-2 receptors in RG2 brain tumor sections was detected using anti-rabbit IgG conjugated with TRITC. […]

Structures can show the parent of a compound that is named as a salt.

On to `Nc1cc(N2CCCCC2)nc(N)[n+]1OS(=O)(=O)[O-]` [MS, minoxidil sulfate], for which, in test [1], the Mean survival was 27.09 ± 8.7 days. In test [2], the “Increase of [14C]AIB uptake to the tumor” value was “approximately three-fold”. Besides, the “Delivery of Her-2 MAb and Neu antibody to brain tumor” value with GBM and RG2 brain tumors (MS 30 μg/kg/min i.c. 15 min, then antibody 1 mg/kg) was “enhanced delivery of Her-2 MAb selectively to GBM and Neu to RG2”. In addition, the “Delivery of adv-GFP to brain tumor” value with GBM and RG2 brain tumors (MS i.c. with GFP-Adv 1×10^9 pfu/ml, GBM nude rats) is reported as “enhanced adv-GFP delivery to brain tumors”.
